Experimental data: PubChem BioAssay AID1963434 (Molecular Pharmacology Branch, DTP, NCI, 2024)

System: 755483-174-R-J1-PDC complex spheroid growth, percent test/control
Assay: Anticancer human tumor 755483-174-R-J1-PDC patient-derived rhabdomyosarcoma cell line growth inhibition [Asc]
Conditions: for IC50: curve of first compound; for viability, T/C: stronger effect = lower value; active = viability on the fitted dose curve at most 10% of control; inactive = the rest
Procedure: Multicellular complex tumor spheroid response to apoptosis pathway targeting inhibitors Alrizomadlin, Pelcitoclax, and Dasminapant in combination with a variety of drugs and investigational agents in selected tumor cell lines
The MDM2 inhibitor alrizomadlin, the Bcl-2/Bcl-xL inhibitor pelcitoclax, and the IAPs inhibitor dasminapant were evaluated both individually and in combination with standard of care and investigational anticancer small molecules within a complex spheroid model of solid tumors. . Complex spheroids include a stromal component modeled by human endothelial cells (HUVEC) and fibroblasts modeled by human mesenchymal stem cells (MSCs). The concentration ranges selected for each drug and investigational agent were based upon clinically achievable concentrations if the clinical Cmax of the agent was known.
Compounds. The drugs and investigational agents: alrizomadlin (APG-115; NSC831270), pelcitoclax (APG-1252; NSC835773), dasminapant (APG-1387;NSC834197), TAK-243 (NSC785004), copanlisib (NSC809693), olaparib (NSC753686), talazoparib (NSC767125), cobimetinib (NSC 768068), eltanexor (KPT-8602, NSC 794443), abemaciclib (NSC 768073), sotorasib (NSC818433), adagrasib (NSC 831453), MRTX-1133 (NSC 836407), Iadademestat (ORY1001, NSC 806812), and RMC-4630 (NSC839698), were obtained from the NCI Developmental Therapeutics Program Chemical Repository. The FDA-approved anticancer drug set is available from the Developmental Therapeutics Program at https://dtp.cancer.gov/organization/dscb/obtaining/available plates.htm. […] The stock solutions were prepared in dimethyl sulfoxide (DMSO, Sigma-Aldrich, St. Louis, MO, cat. D2650) at 800-fold the tested concentration and stored at -70 degrees C prior to their use. All drugs and investigational agents were tested over a range starting from a high concentration at or near the clinical Cmax and decreasing in half-log increments. If the clinical Cmax for an agent had not been determined, the highest concentration tested was 10 microM.
The patient-derived cancer (PDC) cell lines include five colon adenocarcinomas: 186277-243-T-J2-PDC, 616215-338-R-J1-PDC, 439559-082-T-J2-PDC, 463943-066-T-J2-PDC, and 519858-162-T-J1-PDC; three pancreatic carcinomas: 323965-272-R-J2-PDC, 521955-158-R6-J3-PDC, and 521955-158-R2-J5-PDC; two uterine sarcomas: 327498-152-R-J2-PDC and 993429-296-R-J1-PDC; two rhabdomyosarcomas: 755483-174-R-J1-PDC and 772245-204-R-J1-PDC; two soft tissue sarcomas: 126254-015-R-J1-PDC and 494315-158-R-J1-PDC; two malignant fibrous histiocytomas: 317291-083-R-J1-PDC and 596521-263-R-J1-PDC; two breast carcinomas: 171881-019-R-J1-PDC and 885512-296-R-J2-PDC; and one ovarian carcinoma: 6556581-035-R-J-PDC were obtained from the NCI PDMR, (https://pdmr.cancer.gov). The established cell lines HSSY-2 synovial sarcoma (RRID:CVCL 8719), SYO-1 synovial sarcoma (RRID:CVCL_7146), MPNST malignant peripheral neural sheath tumor were obtained from the Sloan Kettering Institute. The following established cell lines were purchased from the American Type Culture Collection (ATCC, Manassas, VA), Sor the received from the NCI repository:, PANC-1 pancreatic carcinoma (CRL-1469, RRID:CVCL_0480), OVCAR-5 ovarian carcinoma (RRID:CVCL_1628), OVCAR-8 ovarian carcinoma (RRID:CVCL_1629), , MCF-7 breast carcinoma (CRL-12584, RRID:CVCL_0031), MDA-MB-231 breast carcinoma (CRL-12532, RRID:CVCL_0062), NCI-H1876 small cell lung carcinoma (CRL-5902, RRID:CVCL_1503), NCI-H510A small cell lung carcinoma (HTB-184, RRID:CVCL_1565), NCI-H1417 (CRL-5869, RRID:CVCL_1469), and NCI-H196 small cell lung carcinoma (CRL-5823, RRID:CVCL_1509). Dr. Peter Houghton (Greehey Children's Cancer Research Institute, University of Texas Health Science Center, San Antonio, TX) provided Rh-18 rhabdomyosarcoma (RRID:CVCL_1659). Pooled donor human umbilical vein endothelial cells (HUVEC, Lonza, cat. CC-2519) and human mesenchymal stem cells (hMSC, Lonza, cat. PT-2501) were purchased from Lonza (Walkersville, MD).
Cell Culture. […]
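Also: spheroids exposed to compounds for seven days before readout.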

COc1c(OCCCN2CCOCC2)ccc2c3n(c(=NC(=O)c4cnc(N)nc4)nc12)CCN3 + Cc1c(S(C)(=O)=O)c(-c2cc(F)cc(N3CCN(c4ccc(NS(=O)(=O)c5ccc(NC(CCN6CCC(C(=O)OCCCP(=O)(O)O)CC6)CSc6ccccc6)c(S(=O)(=O)C(F)(F)F)c5)cc4)CC3)c2)c(-c2ccc(Cl)cc2)n1C(C)C
active: viability, T/C (second compound 0.1 µM, first compound 0.316 µM) 6.56% | viability, T/C (second compound 0.1 µM, first compound 1 µM) 4% | viability, T/C (second compound 0.316 µM, first compound 0.316 µM) 5.57% | viability, T/C (second compound 0.316 µM, first compound 1 µM) 2.62% | viability, T/C (second compound 1 µM, first compound 0.316 µM) 5.22% | viability, T/C (second compound 1 µM, first compound 1 µM) 2.16% | viability, T/C (second compound 3.16 µM, first compound 0.316 µM) 5.03% | viability, T/C (second compound 3.16 µM, first compound 1 µM) 1.66% | viability, T/C (second compound 10 µM, first compound 0.316 µM) 4.21% | viability, T/C (second compound 10 µM, first compound 1 µM) 1.7%
inactive: viability, T/C (second compound 0.1 µM, first compound 0.00316 µM) 39.6% | viability, T/C (second compound 0.1 µM, first compound 0.01 µM) 48% | viability, T/C (second compound 0.1 µM, first compound 0.0316 µM) 33.2% | viability, T/C (second compound 0.1 µM, first compound 0.1 µM) 15.8% | viability, T/C (second compound 0.316 µM, first compound 0.00316 µM) 32.8% | viability, T/C (second compound 0.316 µM, first compound 0.01 µM) 28.1% | viability, T/C (second compound 0.316 µM, first compound 0.0316 µM) 31.9% | viability, T/C (second compound 0.316 µM, first compound 0.1 µM) 13% | viability, T/C (second compound 1 µM, first compound 0.00316 µM) 34.3% | viability, T/C (second compound 1 µM, first compound 0.01 µM) 31.4% | viability, T/C (second compound 1 µM, first compound 0.0316 µM) 18.6% | viability, T/C (second compound 1 µM, first compound 0.1 µM) 17.4% | viability, T/C (second compound 3.16 µM, first compound 0.00316 µM) 26.5% | viability, T/C (second compound 3.16 µM, first compound 0.01 µM) 29.1% | viability, T/C (second compound 3.16 µM, first compound 0.0316 µM) 20.2% | viability, T/C (second compound 3.16 µM, first compound 0.1 µM) 8.47% | viability, T/C (second compound 10 µM, first compound 0.00316 µM) 40.9% | viability, T/C (second compound 10 µM, first compound 0.01 µM) 25.5% | viability, T/C (second compound 10 µM, first compound 0.0316 µM) 19.1% | viability, T/C (second compound 10 µM, first compound 0.1 µM) 12.1%
< 3.16 nM: IC50 (second compound 0.1 µM) | IC50 (second compound 0.316 µM) | IC50 (second compound 1 µM) | IC50 (second compound 3.16 µM) | IC50 (second compound 10 µM)

NC(=O)C(=Cn1cnc(-c2cc(C(F)(F)F)cc(C(F)(F)F)c2)n1)c1cncnc1 + CNC(C)C(=O)NC1CN(S(=O)(=O)c2cccc(S(=O)(=O)N3CCC4CCC(C(=O)NC(c5ccccc5)c5ccccc5)N4C(=O)C(NC(=O)C(C)NC)C3)c2)CCC2CCC(C(=O)NC(c3ccccc3)c3ccccc3)N2C1=O
inactive: viability, T/C (second compound 0.01 µM, first compound 0.000949 µM) 73.8% | viability, T/C (second compound 0.01 µM, first compound 0.003 µM) 46.7% | viability, T/C (second compound 0.01 µM, first compound 0.00949 µM) 15.2% | viability, T/C (second compound 0.0316 µM, first compound 0.000949 µM) 63.4% | viability, T/C (second compound 0.0316 µM, first compound 0.003 µM) 36.2% | viability, T/C (second compound 0.0316 µM, first compound 0.00949 µM) 13.5% | viability, T/C (second compound 0.0316 µM, first compound 0.03 µM) 6.2% | viability, T/C (second compound 0.0316 µM, first compound 0.0949 µM) 6.42% | viability, T/C (second compound 0.0316 µM, first compound 0.3 µM) 22% | viability, T/C (second compound 0.1 µM, first compound 0.000949 µM) 41.2% | viability, T/C (second compound 0.1 µM, first compound 0.003 µM) 35.9% | viability, T/C (second compound 0.1 µM, first compound 0.00949 µM) 7.59% | viability, T/C (second compound 0.316 µM, first compound 0.000949 µM) 26.7% | viability, T/C (second compound 0.316 µM, first compound 0.003 µM) 21% | viability, T/C (second compound 0.316 µM, first compound 0.00949 µM) 22% | viability, T/C (second compound 0.316 µM, first compound 0.03 µM) 4.35% | viability, T/C (second compound 0.316 µM, first compound 0.0949 µM) 26.3% | viability, T/C (second compound 1 µM, first compound 0.000949 µM) 28.7% | viability, T/C (second compound 1 µM, first compound 0.003 µM) 17.9% | viability, T/C (second compound 1 µM, first compound 0.00949 µM) 22.5%
1.67 nM: IC50 (second compound 0.0316 µM)
active: viability, T/C (second compound 0.01 µM, first compound 0.03 µM) 5.78% | viability, T/C (second compound 0.01 µM, first compound 0.0949 µM) 4.79% | viability, T/C (second compound 0.01 µM, first compound 0.3 µM) 3.74% | viability, T/C (second compound 0.1 µM, first compound 0.03 µM) 6.43% | viability, T/C (second compound 0.1 µM, first compound 0.0949 µM) 4.59% | viability, T/C (second compound 0.1 µM, first compound 0.3 µM) 3.8% | viability, T/C (second compound 0.316 µM, first compound 0.3 µM) 2.93% | viability, T/C (second compound 1 µM, first compound 0.03 µM) 2.28% | viability, T/C (second compound 1 µM, first compound 0.0949 µM) 3.49% | viability, T/C (second compound 1 µM, first compound 0.3 µM) 1.7%
< 0.949 nM: IC50 (second compound 0.1 µM) | IC50 (second compound 0.316 µM) | IC50 (second compound 1 µM)
2.6 nM: IC50 (second compound 0.01 µM)
